Reference: patent US7569574B2, “Purine derivatives, the preparation thereof and their use as pharmaceutical compositions” (Boehringer Ingelheim Pharma GmbH & Co. KG, priority 2002, dated 2009)
Counter-ions that a name gives are not always drawn.

test system: not listed separately; experiment: Tolerability after oral administration to rats; assay type: in vivo; settings: 30 mg/kg

SMILES	toxic side effects or changes in the animals' behaviour
Cn1c(NCc2ccccc2)nc2nc(N3CCCC(N)C3)n(Cc3ccccc3)c2c1=O (stereo not shown) [Example 1, 8-(3-amino-piperidin-1-yl)-7-benzyl-2-benzylamino-1-methyl-1,7-dihydro-purin-6-one]	no toxic side effects or changes in the animals' behaviour could be detected

biological target: T1, DPP-IV (Homo sapiens, UniProt P27487); experiment: DPP-IV assay with Caco-2 cell extract as DPP IV source, AFC substrate, fluorescence; assay type: biochemical; settings: extract of human colon carcinoma cell line Caco-2; substrate 100 μM; 60 minutes at ambient temperature; read-out: DPP IV inhibition IC50
T1 construct: an extract of human colon carcinoma cell line Caco-2 is used as the DPP IV source; endogenous in cells; host or cells: Caco-2 (human colon carcinoma), differentiated to induce DPP-IV expression; Nonidet-P40 solubilised extract
T1 sequence (P27487 whole entry): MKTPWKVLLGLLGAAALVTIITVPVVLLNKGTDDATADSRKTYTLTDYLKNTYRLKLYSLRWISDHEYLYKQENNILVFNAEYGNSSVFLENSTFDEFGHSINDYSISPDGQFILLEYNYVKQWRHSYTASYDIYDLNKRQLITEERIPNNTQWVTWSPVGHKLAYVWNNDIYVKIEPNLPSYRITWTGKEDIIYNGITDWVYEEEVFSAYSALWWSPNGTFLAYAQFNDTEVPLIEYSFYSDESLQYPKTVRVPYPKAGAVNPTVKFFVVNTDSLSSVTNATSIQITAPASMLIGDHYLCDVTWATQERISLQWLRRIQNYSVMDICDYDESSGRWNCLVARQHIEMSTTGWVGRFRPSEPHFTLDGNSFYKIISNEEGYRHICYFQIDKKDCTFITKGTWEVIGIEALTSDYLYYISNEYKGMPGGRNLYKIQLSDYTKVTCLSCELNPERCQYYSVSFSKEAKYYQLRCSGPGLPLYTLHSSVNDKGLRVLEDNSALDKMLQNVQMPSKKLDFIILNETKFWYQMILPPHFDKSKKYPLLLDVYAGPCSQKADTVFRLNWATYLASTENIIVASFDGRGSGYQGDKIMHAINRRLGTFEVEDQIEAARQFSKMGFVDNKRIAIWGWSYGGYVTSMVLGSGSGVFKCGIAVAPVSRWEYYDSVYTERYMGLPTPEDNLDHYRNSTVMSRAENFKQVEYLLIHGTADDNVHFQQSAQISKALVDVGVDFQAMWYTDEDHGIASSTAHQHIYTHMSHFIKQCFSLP
Description: The differentiation of the cells in order to induce the DPP-IV expression was carried out as described by Reiher et al. in an article entitled “Increased expression of intestinal cell line Caco-2”, which appeared in Proc. Natl. Acad. Sci. Vol. 90, pages 5757-5761 (1993). The cell extract was obtained from cells solubilised in a buffer (10 mM Tris HCl, 0.15 M NaCl, 0.04 t.i.u. aprotinin, 0.5% Nonidet-P40, pH 8.0) by centrifuging at 35,000 g for 30 minutes at 4° C. (to remove cell debris).
The DPP-IV assay was carried out as follows:
50 μl substrate solution (AFC; AFC is amido-4-trifluoromethylcoumarin), final concentration 100 μM, were placed in black microtitre plates. 20 μl of assay buffer (final concentrations 50 mM Tris HCl pH 7.8, 50 mM NaCl, 1% DMSO) was pipetted in. The reaction was started by adding 30 μl of solubilised Caco-2 protein (final concentration 0.14 μg of protein per well). The test substances to be investigated were typically added prediluted in 20 μl, and the volume of assay buffer was then reduced accordingly. The reaction was carried out at ambient temperature, incubating for 60 minutes. Then the fluorescence was measured in a Victor 1420 Multilabel Counter, the excitation wavelength being 405 nm and the emission wavelength being 535 nm. Blank readings (corresponding to 0% activity) were obtained in mixtures without any Caco-2 protein (volume replaced by assay buffer), control values (corresponding to 100% activity) were obtained in mixtures with no substance added.

SMILES	IC50 [nM]
Cn1c(C#N)nc2nc(N3CCCC(N)C3)n(Cc3ccccc3)c2c1=O (stereo not shown) [1(24), 8-(3-amino-piperidin-1-yl)-7-benzyl-2-cyano-1-methyl-1,7-dihydro-purin-6-one trifluoroacetate]	113
COc1ccc(Cn2cnc3nc(N4CCCC(N)C4)n(CC=C(C)C)c3c2=O)c2ccccc12 (stereo not shown) [1(28), 8-(3-amino-piperidin-1-yl)-7-(3-methyl-but-2-en-1-yl)-1-[(4-methoxy-naphthalen-1-yl)methyl]-1,7-dihydro-purin-6-one]	57
Cn1c(N)nc2nc(N3CCCC(N)C3)n(Cc3ccccc3)c2c1=O (stereo not shown) [1(9), 2-amino-8-(3-amino-piperidin-1-yl)-7-benzyl-1-methyl-1,7-dihydro-purin-6-one trifluoroacetate]	61
CN(C)c1nc2nc(N3CCCC(N)C3)n(Cc3ccccc3)c2c(=O)n1C (stereo not shown) [1(8), 8-(3-amino-piperidin-1-yl)-7-benzyl-2-dimethylamino-1-methyl-1,7-dihydro-purin-6-one trifluoroacetate]	213
Cn1c(NCc2ccc(F)cc2)nc2nc(N3CCCC(N)C3)n(Cc3ccccc3)c2c1=O (stereo not shown) [1(1), 8-(3-amino-piperidin-1-yl)-7-benzyl-2-(4-fluoro-benzylamino)-1-methyl-1,7-dihydro-purin-6-one trifluoroacetate]	24
Cn1c(NCC2CCCCC2)nc2nc(N3CCCC(N)C3)n(Cc3ccccc3)c2c1=O (stereo not shown) [1(6), 8-(3-amino-piperidin-1-yl)-7-benzyl-2-cyclohexylmethylamino-1-methyl-1,7-dihydro-purin-6-one trifluoroacetate]	48
Cn1c(NCc2ccccc2)nc2nc(N3CCCC(N)C3)n(Cc3ccccc3)c2c1=O (stereo not shown) [Example 1, 8-(3-amino-piperidin-1-yl)-7-benzyl-2-benzylamino-1-methyl-1,7-dihydro-purin-6-one]	11
NC1CCCN(c2nc3nc(SCc4ccccc4)[nH]c(=O)c3n2Cc2ccccc2)C1 (stereo not shown) [1(15), 8-(3-amino-piperidin-1-yl)-7-benzyl-2-benzylsulphanyl-1,7-dihydro-purin-6-one trifluoroacetate]	58
Cn1c(NC2CCCCC2)nc2nc(N3CCCC(N)C3)n(Cc3ccccc3)c2c1=O (stereo not shown) [1(5), 8-(3-amino-piperidin-1-yl)-7-benzyl-2-cyclohexylamino-1-methyl-1,7-dihydro-purin-6-one trifluoroacetate]	134
NC1CCCN(c2nc3ncn(CC(=O)c4ccccc4)c(=O)c3n2Cc2ccccc2)C1 (stereo not shown) [1(22), 8-(3-amino-piperidin-1-yl)-7-benzyl-1-(2-oxo-2-phenyl-ethyl)-1,7-dihydro-purin-6-one trifluoroacetate]	48
CC(C)=CCn1c(N2CCCC(N)C2)nc2nc(C)n(Cc3cccc4ccccc34)c(=O)c21 (stereo not shown) [1(26), 8-(3-amino-piperidin-1-yl)-2-methyl-7-(3-methyl-but-2-en-1-yl)-1-[(naphthalen-1-yl)methyl]-1,7-dihydro-purin-6-one]	40
CC(C)Nc1nc2nc(N3CCCC(N)C3)n(Cc3ccccc3)c2c(=O)n1C (stereo not shown) [1(3), 8-(3-amino-piperidin-1-yl)-7-benzyl-2-isopropylamino-1-methyl-1,7-dihydro-purin-6-one trifluoroacetate]	110
CC(C)=CCn1c(N2CCCC(N)C2)nc2ncn(Cc3cccc4ccccc34)c(=O)c21 (stereo not shown) [1(27), 8-(3-amino-piperidin-1-yl)-7-(3-methyl-but-2-en-1-yl)-1-[(naphthalen-1-yl)methyl]-1,7-dihydro-purin-6-one]	19
CC(C)=CCn1c(N2CCCC(N)C2)nc2nc(CCc3ccccc3)n(C)c(=O)c21 (stereo not shown) [1(12), 8-(3-amino-piperidin-1-yl)-1-methyl-7-(3-methyl-but-2-en-1-yl)-2-(2-phenylethyl)-1,7-dihydro-purin-6-one trifluoroacetate]	18
Cn1c(CC(=O)c2ccccc2)nc2nc(N3CCCC(N)C3)n(Cc3ccccc3)c2c1=O (stereo not shown) [1(23), 8-(3-amino-piperidin-1-yl)-7-benzyl-1-methyl-2-(2-oxo-2-phenyl-ethyl)-1,7-dihydro-purin-6-one]	157
CC(C)=CCn1c(N2CCCC(N)C2)nc2nc(C)n(Cc3ccccc3)c(=O)c21 (stereo not shown) [1(25), 8-(3-amino-piperidin-1-yl)-1-benzyl-2-methyl-7-(3-methyl-but-2-en-1-yl)-1,7-dihydro-purin-6-one]	275
Cn1c(NCCc2ccccc2)nc2nc(N3CCCC(N)C3)n(Cc3ccccc3)c2c1=O (stereo not shown) [1(2), 8-(3-amino-piperidin-1-yl)-7-benzyl-1-methyl-2-[(2-phenylethyl)amino]-1,7-dihydro-purin-6-one trifluoroacetate]	42
Cc1nc2nc(N3CCCC(N)C3)n(Cc3ccccc3)c2c(=O)n1C (stereo not shown) [1(11), 8-(3-amino-piperidin-1-yl)-7-benzyl-1-methyl-2-methyl-1,7-dihydro-purin-6-one trifluoroacetate]	54
CSc1nc2nc(N3CCCC(N)C3)n(Cc3ccccc3)c2c(=O)[nH]1 (stereo not shown) [1(14), 8-(3-amino-piperidin-1-yl)-7-benzyl-2-methylsulphanyl-1,7-dihydro-purin-6-one hydrochloride]	158
CNc1nc2nc(N3CCCC(N)C3)n(Cc3ccccc3)c2c(=O)n1C (stereo not shown) [1(4), 8-(3-amino-piperidin-1-yl)-7-benzyl-1-methyl-2-methylamino-1,7-dihydro-purin-6-one trifluoroacetate]	58
Cn1c(N2CCCCC2)nc2nc(N3CCCC(N)C3)n(Cc3ccccc3)c2c1=O (stereo not shown) [1(7), 8-(3-amino-piperidin-1-yl)-7-benzyl-1-methyl-2-(piperidin-1-yl)-1,7-dihydro-purin-6-one hydrochloride]	434
